Changes are numbered by the printed parent chain.
What was measured:
Assay type in all cases: biochemical
[1] = molecular target: T1, human MCU and EMRE reconstituted in yeast mitochondria (HsMCU/EMRE) (Homo sapiens, UniProt Q8NE86, D261A); experiment: aequorin peak Ca2+ in isolated yeast mitochondria, Hill fit
T1 sequence (Q8NE86 51-351 D261A): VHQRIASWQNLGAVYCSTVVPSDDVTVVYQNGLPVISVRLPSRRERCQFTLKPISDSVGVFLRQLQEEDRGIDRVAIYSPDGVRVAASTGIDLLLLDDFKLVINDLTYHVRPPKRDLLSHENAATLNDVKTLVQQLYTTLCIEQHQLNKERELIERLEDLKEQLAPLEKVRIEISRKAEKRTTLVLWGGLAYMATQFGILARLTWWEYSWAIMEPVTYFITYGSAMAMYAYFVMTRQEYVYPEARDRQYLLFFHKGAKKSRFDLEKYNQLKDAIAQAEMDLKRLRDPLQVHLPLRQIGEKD
T1 sequence (Q9H4I9 53-107 partner): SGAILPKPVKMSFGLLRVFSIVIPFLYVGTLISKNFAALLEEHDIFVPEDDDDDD

[2] = molecular target: T2, human MCU and EMRE reconstituted in yeast mitochondria (HsMCU/EMRE) (Homo sapiens, UniProt Q8NE86); experiment: aequorin Ca2+ uptake rate in isolated yeast mitochondria, Hill fit
T2 sequence (Q8NE86 51-351): T1 sequence (Q8NE86 51-351 D261A) with A211D
T2 sequence (Q9H4I9 53-107 partner): T1 sequence (Q9H4I9 53-107 partner)

[3] = molecular target: T3, MCU (native mitochondrial calcium uniporter of HEK293T mitoplasts and HeLa cells) (Homo sapiens, UniProt Q8NE86); experiment: whole-mitoplast patch clamp, HEK293T; details: 1 mM bath Ca2+, -160 mV; bath (cytosolic) side, reversible
T3 sequence (Q8NE86 51-351): T1 sequence (Q8NE86 51-351 D261A) with A211D
T3 sequence (Q9H4I9 53-107 partner): T1 sequence (Q9H4I9 53-107 partner)

Structure (SMILES)	IC50 [1] [µM]	IC50 [2] [µM]	% reduction of MCU Ca2+ current at 10 μM [3]
O=C1c2c(O)ccc(O)c2C(=O)c2c(NCCNCCO)ccc(NCCNCCO)c21 [mitoxantrone]	10.7 ± 1.4	8.3 ± 0.9	~ 85%
NCCNc1ccc(NCCN)c2c1C(=O)c1ccncc1C2=O [pixantrone]	31.8 ± 6.5	15 ± 1	
Nc1ccc(NCCNCCO)c2c1C(=O)c1c(O)ccc(O)c1C2=O [impurity A]		36 ± 0.2	
